What was measured:
[1] = Stability of solid compounds in ambient temperature (15° C., nitrogen cabinet, dark; SFC chiral purity); type: physicochemical; settings: for Enantiomer Excess of the Compound: solid
Method: Test 2: Evaluation of the Stability of Solid Compounds in Ambient Temperature.
20 mg of test compound was placed into 5 mL brown transparent sealed container with stopper and stoned in the nitrogen cabinet (15° C.) in the dark. After the preset storage time, about 2 mg of test compound was accurately weighed, added into ethanol to prepare 1 mg/mL ethanol solution. The purity and chiral purity of the compound was detected by high performance liquid chromatography (HPLC) or LC-MS (LCMS) and supercritical fluid chromatography (SFC).

human URAT1 = molecular target: T1, human URAT1 (Homo sapiens, UniProt Q96S37); test: Inhibition of URAT1-mediated uptake of 14C-labeled uric acid in stably transfected HEK293 cells; type: cell-based; settings: multiple parallel tests
T1 construct: host or cells: HEK293
T1 sequence (Q96S37 1-553): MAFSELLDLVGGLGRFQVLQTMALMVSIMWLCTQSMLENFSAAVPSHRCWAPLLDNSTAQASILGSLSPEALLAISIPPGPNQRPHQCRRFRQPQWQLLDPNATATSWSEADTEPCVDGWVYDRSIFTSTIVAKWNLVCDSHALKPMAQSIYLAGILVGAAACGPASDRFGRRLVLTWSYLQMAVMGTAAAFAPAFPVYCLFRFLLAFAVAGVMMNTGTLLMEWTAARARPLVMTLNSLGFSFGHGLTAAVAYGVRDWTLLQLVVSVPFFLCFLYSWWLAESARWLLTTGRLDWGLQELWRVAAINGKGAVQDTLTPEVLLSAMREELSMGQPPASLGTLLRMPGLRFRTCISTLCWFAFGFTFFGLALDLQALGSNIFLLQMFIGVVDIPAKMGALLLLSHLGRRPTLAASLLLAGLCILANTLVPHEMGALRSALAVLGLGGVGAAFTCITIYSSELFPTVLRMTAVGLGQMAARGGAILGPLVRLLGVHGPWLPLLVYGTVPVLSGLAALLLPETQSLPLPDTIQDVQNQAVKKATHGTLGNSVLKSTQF
Method: A HEK293 cell line stably transfected with URAT-1 (uric acid transporter) gene was used to determine the IC50 value of the compound to inhibit the reabsorption of uric acid.
URAT-1 (HEK293) cell lines: HEK293 cell line with human URAT1 stable transfected (the cell line was constructed by WuXi AppTec in Shanghai).
4) The cells were diluted with culture medium to 2.5×10^5 cells/mL. The diluted cells was seeded into 24-well plates (800 μg/hole, 2×10^5 cells/hole) coated with rat tail collagen and the plates were incubated at 37° C. under 5% CO2 overnight.
1) The cells were inoculated on the 24-well plates and discarded 16-18 hours later. Add 600 μL HBSS buffer to each hole and clean it two times
2) Absorb the HBSS buffer and then add 180 μL of HBSS buffer to each hole.
1) Dissolve the compound powder in 100% DMSO. […]
10 μL of ^14C-Uric acid solution was diluted and added to each well of 24-well plates and the final concentration of ^14C-uric acid was 50 μM. […] Collect the cell lysis in liquid scintillation and read the Tri-Carb signal in liquid scintillation counter after adding the liquid scintillation solution.
Based on the luminescence data, the inhibitory effect of compounds on URAT-1 was analyzed, and the percentage of inhibition data was calculated. […]

O=C(O)CSc1nnc(Br)n1-c1ccc(C2CC2)c2ccccc12 (single isomer, unassigned) [(+)-Lesinurad]
Enantiomer Excess of the Compound ([1]; storing time 0 day): 95.9% | Enantiomer Excess of the Compound ([1]; storing time >80 days): Unchanged | Stability of the solid powder (SFC purity) ([1]; storing over 80 days): very stable | In vitro potency against URAT1 compared with (−)-Lesinurad and (±)-Lesinurad (human URAT1): obviously higher in vitro potency
